Measured values from patent US12447153B2, “HER2 mutation inhibitors” (Array BioPharma Inc., priority 2021, dated 2025).

Experiments:
ErbB2 WT = ErbB2 WT (Homo sapiens (Human), UniProt P04626); test: ErbB Enzyme Assay (HTRF KinEASE-TK), Assay 2; type: biochemical
BCRP = BCRP (Homo sapiens (Human), UniProt Q9UNQ0); test: BCRP MDCKII efflux assay (Assay 7); type: in vitro ADME; details: dog; efflux ratio Papp(B-A)/Papp(A-B), BCRP MDCKII cells; read-out: Assay 7 Pe Ratio
Procedure: Assay conditions included with and without the BCRP-specific inhibitor, KO143, at a concentration of 0.3 μM to ascertain the contribution of BCRP to the efflux value of the test compound.
Final organic concentration in the assay was 1%.

[1] = molecular target: ErbB2 with Exon 20 YVMA insertion (HER2-YVMA) (Homo sapiens (Human), UniProt P04626, INS775YVMA); test: Cellular Phosphorylation Assay, Assay 4 (constitutive ErbB2 phosphorylation, NIH 3T3 cells); type: cell-based
EGFR = EGFR (Homo sapiens (Human), UniProt P00533); test: ErbB Enzyme Assay (HTRF KinEASE-TK), Assay 3; type: biochemical
EGFR, sequence (P00533 25-1210): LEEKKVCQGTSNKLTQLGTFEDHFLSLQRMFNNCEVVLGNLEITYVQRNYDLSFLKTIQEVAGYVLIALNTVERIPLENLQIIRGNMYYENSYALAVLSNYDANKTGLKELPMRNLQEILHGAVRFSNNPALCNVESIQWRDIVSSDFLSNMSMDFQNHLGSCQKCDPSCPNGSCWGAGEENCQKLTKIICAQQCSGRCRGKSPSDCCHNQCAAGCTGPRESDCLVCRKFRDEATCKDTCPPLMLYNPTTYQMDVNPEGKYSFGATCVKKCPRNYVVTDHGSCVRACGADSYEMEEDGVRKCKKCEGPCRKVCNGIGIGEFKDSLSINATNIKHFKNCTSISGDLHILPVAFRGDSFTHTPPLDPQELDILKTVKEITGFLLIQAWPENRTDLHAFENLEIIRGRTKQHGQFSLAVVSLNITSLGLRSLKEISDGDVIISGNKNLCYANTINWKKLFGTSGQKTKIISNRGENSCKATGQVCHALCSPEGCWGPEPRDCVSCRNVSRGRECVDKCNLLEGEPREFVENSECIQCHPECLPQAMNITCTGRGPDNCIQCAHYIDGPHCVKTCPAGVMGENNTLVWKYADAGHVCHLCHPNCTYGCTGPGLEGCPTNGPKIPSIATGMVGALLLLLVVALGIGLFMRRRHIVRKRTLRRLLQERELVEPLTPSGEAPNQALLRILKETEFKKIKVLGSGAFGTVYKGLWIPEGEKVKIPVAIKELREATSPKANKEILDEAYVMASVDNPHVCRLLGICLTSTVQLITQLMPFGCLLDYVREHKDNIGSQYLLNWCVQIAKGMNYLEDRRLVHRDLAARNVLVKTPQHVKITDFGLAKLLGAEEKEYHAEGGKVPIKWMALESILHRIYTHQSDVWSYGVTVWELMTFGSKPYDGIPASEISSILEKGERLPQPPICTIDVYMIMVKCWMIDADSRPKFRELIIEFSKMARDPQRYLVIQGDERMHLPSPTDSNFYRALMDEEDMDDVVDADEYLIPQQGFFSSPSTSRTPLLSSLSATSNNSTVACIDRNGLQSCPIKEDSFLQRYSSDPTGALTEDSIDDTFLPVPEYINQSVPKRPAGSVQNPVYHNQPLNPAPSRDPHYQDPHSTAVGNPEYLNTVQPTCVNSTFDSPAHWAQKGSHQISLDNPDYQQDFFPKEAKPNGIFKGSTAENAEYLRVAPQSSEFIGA

EGFR wild type (EGFR WT) = EGFR wild type (EGFR WT) (Homo sapiens (Human), UniProt P00533); test: Cellular Phosphorylation Assay, Assay 5 (EGF-stimulated EGFR phosphorylation, NIH 3T3 cells); type: cell-based
EGFR wild type (EGFR WT), sequence (P00533 25-1210): as above

MDR1 (P-gp) = MDR1 (P-gp) (Homo sapiens (Human), UniProt P08183); test: in vitro; details: pig, LLC-PK1
MDR1 (P-gp), sequence (P08183 whole entry): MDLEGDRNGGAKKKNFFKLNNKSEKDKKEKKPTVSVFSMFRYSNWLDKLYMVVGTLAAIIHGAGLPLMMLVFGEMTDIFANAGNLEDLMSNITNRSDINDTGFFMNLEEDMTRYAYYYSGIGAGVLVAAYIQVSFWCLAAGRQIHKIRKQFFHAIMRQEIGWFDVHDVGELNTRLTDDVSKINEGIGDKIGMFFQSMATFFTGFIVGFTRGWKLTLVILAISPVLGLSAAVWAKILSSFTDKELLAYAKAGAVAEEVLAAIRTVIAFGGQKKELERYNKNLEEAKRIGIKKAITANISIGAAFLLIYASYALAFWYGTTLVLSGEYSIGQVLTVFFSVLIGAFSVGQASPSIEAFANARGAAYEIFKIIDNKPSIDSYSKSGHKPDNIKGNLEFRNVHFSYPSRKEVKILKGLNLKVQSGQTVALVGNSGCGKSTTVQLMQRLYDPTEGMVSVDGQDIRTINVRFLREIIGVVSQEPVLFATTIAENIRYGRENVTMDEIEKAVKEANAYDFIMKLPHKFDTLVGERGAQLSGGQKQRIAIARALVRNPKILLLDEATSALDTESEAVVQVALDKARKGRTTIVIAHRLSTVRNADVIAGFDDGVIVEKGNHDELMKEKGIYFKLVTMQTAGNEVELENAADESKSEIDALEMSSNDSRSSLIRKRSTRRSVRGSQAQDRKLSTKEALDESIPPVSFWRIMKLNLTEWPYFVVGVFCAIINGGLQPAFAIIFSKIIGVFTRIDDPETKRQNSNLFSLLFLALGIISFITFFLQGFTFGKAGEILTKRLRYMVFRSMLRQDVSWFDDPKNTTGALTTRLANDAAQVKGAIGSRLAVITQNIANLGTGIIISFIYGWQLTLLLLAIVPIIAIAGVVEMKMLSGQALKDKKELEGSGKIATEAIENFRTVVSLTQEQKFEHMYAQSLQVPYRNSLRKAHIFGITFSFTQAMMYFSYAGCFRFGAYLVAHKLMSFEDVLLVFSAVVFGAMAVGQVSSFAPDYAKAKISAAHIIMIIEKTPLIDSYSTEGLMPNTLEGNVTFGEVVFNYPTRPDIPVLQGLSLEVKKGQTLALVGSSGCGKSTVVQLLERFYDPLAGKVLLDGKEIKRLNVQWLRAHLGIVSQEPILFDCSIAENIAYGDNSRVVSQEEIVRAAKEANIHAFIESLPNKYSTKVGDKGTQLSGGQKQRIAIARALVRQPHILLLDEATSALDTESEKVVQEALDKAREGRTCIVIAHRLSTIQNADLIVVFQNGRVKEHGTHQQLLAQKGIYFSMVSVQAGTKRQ

[2] = EGF-stimulated EGFR WT phosphorylation
[3] = cellular ErbB2 YVMA phosphorylation
[4] = cellular EGFR WT phosphorylation, EGF-stimulated

ErbB2 WT, sequence (P04626 23-1255): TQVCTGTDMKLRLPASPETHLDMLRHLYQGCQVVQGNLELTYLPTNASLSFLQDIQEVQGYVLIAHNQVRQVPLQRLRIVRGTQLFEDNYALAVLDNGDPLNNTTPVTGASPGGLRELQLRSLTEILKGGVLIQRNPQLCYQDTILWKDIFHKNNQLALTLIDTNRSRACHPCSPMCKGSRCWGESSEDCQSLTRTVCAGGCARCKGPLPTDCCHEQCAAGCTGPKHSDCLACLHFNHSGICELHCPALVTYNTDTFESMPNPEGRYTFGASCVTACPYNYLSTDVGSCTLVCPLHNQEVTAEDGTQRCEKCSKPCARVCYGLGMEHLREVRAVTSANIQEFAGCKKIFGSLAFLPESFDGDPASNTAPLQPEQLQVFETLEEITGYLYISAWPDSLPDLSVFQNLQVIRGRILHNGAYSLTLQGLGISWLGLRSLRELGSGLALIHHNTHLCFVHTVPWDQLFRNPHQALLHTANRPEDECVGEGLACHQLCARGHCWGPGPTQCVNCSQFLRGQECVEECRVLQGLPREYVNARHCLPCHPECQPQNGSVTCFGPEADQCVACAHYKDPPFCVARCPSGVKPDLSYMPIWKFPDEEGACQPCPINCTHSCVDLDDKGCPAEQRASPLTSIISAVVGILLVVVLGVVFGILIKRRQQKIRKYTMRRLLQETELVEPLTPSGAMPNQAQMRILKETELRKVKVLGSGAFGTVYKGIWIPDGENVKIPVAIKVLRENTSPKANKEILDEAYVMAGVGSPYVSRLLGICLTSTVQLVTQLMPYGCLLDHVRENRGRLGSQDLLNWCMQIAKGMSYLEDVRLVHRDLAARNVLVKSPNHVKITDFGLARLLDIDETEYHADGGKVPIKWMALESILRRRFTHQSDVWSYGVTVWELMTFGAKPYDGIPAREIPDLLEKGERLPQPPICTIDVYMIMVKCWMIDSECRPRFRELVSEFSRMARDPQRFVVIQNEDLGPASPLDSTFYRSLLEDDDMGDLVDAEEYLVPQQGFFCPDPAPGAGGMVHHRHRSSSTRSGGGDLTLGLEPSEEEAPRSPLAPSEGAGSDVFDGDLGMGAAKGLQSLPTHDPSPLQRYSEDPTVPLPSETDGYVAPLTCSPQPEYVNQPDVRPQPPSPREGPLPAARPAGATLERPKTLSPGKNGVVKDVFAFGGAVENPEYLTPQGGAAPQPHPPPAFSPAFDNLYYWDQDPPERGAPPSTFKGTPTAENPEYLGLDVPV

Row | IC50 (ErbB2 WT; ErbB2 WT enzyme) | efflux ratio at 2 h, 1 µM (BCRP) | IC50 ([1]; ErbB2 YVMA phosphorylation) | IC50 (EGFR; EGFR enzyme) | IC50 (EGFR wild type (EGFR WT); [2]) | efflux ratio at 2 h, 1 µM (MDR1 (P-gp)) | IC50 (ErbB2 WT; ErbB2 WT enzyme assay) | IC50 [1, 3] | IC50 (EGFR; EGFR enzyme assay) | IC50 (EGFR wild type (EGFR WT); [4]) | Compound
1 | 26.5 nM | 2 | 8.4 nM | 422 nM | 768 nM | 1.2 |  |  |  |  | C=CC(=O)N1CC[C@@H]2C[C@H](c3ccc4ncnc(Nc5cc(C)c(Oc6ccn7ncnc7c6)cc5F)c4n3)C[C@@H]21 (single isomer, unassigned) [Example 225]
2 | 26.7 nM | 2.5 | 15 nM | 1820 nM | 2900 nM | 0.9 |  |  |  |  | C=CC(=O)N1C[C@@H](c2ccc3ncnc(Nc4ccc(Oc5ccc6c(c5)ncn6C)c(C)c4F)c3n2)C[C@@H]1C [Example 191, 1-((2S,4S)-4-(4-((2-fluoro-3-methyl-4-((1-methyl-1H-benzo[d]imidazol-5-yl)oxy)phenyl)amino)pyrido[3,2-d]pyrimidin-6-yl)-2-methylpyrrolidin-1-yl)prop-2-en-1-one]
3 | 119 nM | 1.8 | 20.3 nM | ≥ 10000 nM | ≥ 5000 nM | 1.5 |  |  |  |  | C=CC(=O)N1CC[C@H]2C[C@@H](c3ccc4ncnc(Nc5cc(C)c(Oc6ccc7c(c6)ncn7C)cc5F)c4n3)C[C@H]21 (racemic) [Example 37, 1-(5-(4-((2-fluoro-5-methyl-4-((1-methyl-1H-benzo[d]imidazol-5-yl)oxy)phenyl)amino)pyrido[3,2-d]pyrimidin-6-yl)hexahydrocyclopenta[b]pyrrol-1(2H)-yl)prop-2-en-1-one]
4 | 105 nM | 4.2 | 18.9 nM | ≥ 10000 nM | 1700 nM | 0.8 |  |  |  |  | C=CC(=O)N1C[C@H](c2ccc3ncnc(Nc4ccc(Oc5ccc6c(c5)ncn6C)c(C)c4F)c3n2)CCC1(C)C (racemic) [Example 36, 1-(5-(4-((2-fluoro-3-methyl-4-((1-methyl-1H-benzo[d]imidazol-5-yl)oxy)phenyl)amino)pyrido[3,2-d]pyrimidin-6-yl)-2,2-dimethylpiperidin-1-yl)prop-2-en-1-one]
5 | 58.7 nM | 4.5 | 24 nM | 2420 nM | 2560 nM | 1.2 |  |  |  |  | C=CC(=O)N1CC[C@H]2C[C@H](c3ccc4ncnc(Nc5cc(C)c(Oc6ccn7ncnc7c6)cc5F)c4n3)C[C@H]21 (racemic) [Example 205, rac-1-((3aR,5S,6aR)-5-(4-((4-([1,2,4]triazolo[1,5-a]pyridin-7-yloxy)-2-fluoro-5-methylphenyl)amino)pyrido[3,2-d]pyrimidin-6-yl)hexahydrocyclopenta[b]pyrrol-1(2H)-yl)prop-2-en-1-one]
6 | 3300 nM | 2.5 | 54.2 nM | ≥ 10000 nM | 2920 nM | 1.3 |  |  |  |  | C=CC(=O)N1CCC(Oc2ccc3ncnc(Nc4ccc(Oc5ccc6cn(C)nc6c5)c(C)c4F)c3n2)CC1 [Example 6, 1-(4-((4-((2-fluoro-3-methyl-4-((2-methyl-2H-indazol-6-yl)oxy)phenyl)amino)pyrido[3,2-d]pyrimidin-6-yl)oxy)piperidin-1-yl)prop-2-en-1-one]
7 |  | 4 |  |  |  | 2 | 61.3 nM | 13.4 nM | 1290 nM | ≥ 5000 nM | C=CC(=O)N1CCCC(c2ccc3ncnc(Nc4ccc(Oc5cnc6c(c5)ncn6C)c(C)c4)c3n2)CC1 (stereo not drawn) [Example 403]

Further lines, the molecule ahead of its results:

Row | Compound | IC50 (ErbB2 WT; ErbB2 WT enzyme) | efflux ratio at 2 h, 1 µM (BCRP) | IC50 ([1]; ErbB2 YVMA phosphorylation) | IC50 (EGFR; EGFR enzyme) | IC50 (EGFR wild type (EGFR WT); [2]) | efflux ratio at 2 h, 1 µM (MDR1 (P-gp)) | IC50 (ErbB2 WT; ErbB2 WT enzyme assay) | IC50 [1, 3] | IC50 (EGFR; EGFR enzyme assay) | IC50 (EGFR wild type (EGFR WT); [4])
8 | CC#CC(=O)N1CC2CCC(C1)N2c1ccc2ncnc(Nc3ccc(Oc4ccn5ncnc5c4)c(C)c3F)c2n1 [Example 246, 1-(8-(4-((4-([1,2,4]triazolo[1,5-a]pyridin-7-yloxy)-2-fluoro-3-methylphenyl)amino)pyrido[3,2-d]pyrimidin-6-yl)-3,8-diazabicyclo[3.2.1]octan-3-yl)but-2-yn-1-one] | 34.8 nM | 1.3 | 16.2 nM | 1800 nM | 1300 nM | 0.5 |  |  |  | 
9 | C=CC(=O)N1C[C@H](c2ccc3ncnc(Nc4ccc(Oc5ccc6c(c5)ncn6C)c(C)c4F)c3n2)CC[C@H]1C [Example 169, 1-((2R,5R)-5-(4-((2-fluoro-3-methyl-4-((1-methyl-1H-benzo[d]imidazol-5-yl)oxy)phenyl)amino)pyrido[3,2-d]pyrimidin-6-yl)-2-methylpiperidin-1-yl)prop-2-en-1-one] | 111 nM | 2.1 | 23.6 nM | 1810 nM | ≥ 5000 nM | 1 |  |  |  | 
10 | C=CC(=O)N1CCCC(c2ccc3ncnc(Nc4ccc(Oc5cnc6c(c5)ncn6C)c(C)c4F)c3n2)CC1 (stereo not drawn) [Example 413] |  | 2 |  |  |  | 1 | 78.6 nM | 24.6 nM | 2220 nM | ≥ 5000 nM
11 | C=CC(=O)N1CCN(c2ccc3ncnc(Nc4cc(C)c(Oc5cnc6c(c5)ncn6C)cc4F)c3n2)C[C@@H]1C1CC1 [Example 355] |  | 7.2 |  |  |  | 1.5 | 158 nM | 28.5 nM | ≥ 10000 nM | ≥ 5000 nM
12 | C=CC(=O)N1CC2CC(C1)N2c1ccc2ncnc(Nc3cc(C)c(Oc4ccc5c(c4)ncn5C)cc3F)c2n1 [Example 334] |  | 1.9 |  |  |  | 3.7 | 55.6 nM | 21.8 nM | 430 nM | 1080 nM
13 | C=CC(=O)N1CCC[C@@H](c2ccc3ncnc(Nc4ccc(Oc5ccc6c(c5)ncn6C)c(C)c4F)c3n2)CC1 (racemic) [Example 147, rac-(R)-1-(4-(4-((2-fluoro-3-methy-4-((1-methyl-1H-benzo[d]imidazol-5-yl)oxy)phenyl)amino)pyrido[3,2-d]pyrimidin-6-yl)azepan-1-yl)prop-2-en-1-one] | 18.6 nM | 2.3 | 23 nM | 782 nM | 2590 nM | 2.9 |  |  |  | 
14 | C=CC(=O)N1CC[C@@H]2C[C@H]1CN2c1ccc2ncnc(Nc3cc(C)c(Oc4ccn5ncnc5c4)cc3F)c2n1 [Example 332] |  | 3.2 |  |  |  | 1.2 | 10.9 nM | 5.9 nM | 196 nM | 341 nM
15 | C=CC(=O)N1C[C@H]2CC[C@@H]1C[C@@H]2c1ccc2ncnc(Nc3ccc(Oc4ccn5ncnc5c4)c(C)c3F)c2n1 (racemic) [Example 217, rac-1-((1R,4S,5S)-5-(4-((4-([1,2,4]triazolo[1,5-a]pyridin-7-yloxy)-2-fluoro-3-methylphenyl)amino)pyrido[3,2-d]pyrimidin-6-yl)-2-azabicyclo[2.2.2]octan-2-yl)prop-2-en-1-one] | 18.8 nM | 1.9 | 11.1 nM | 1460 nM | 1850 nM | 0.8 |  |  |  | 
16 | C=CC(=O)N1CCCC(c2ccc3ncnc(Nc4ccc(Oc5ccn6ncnc6c5)c(C)c4)c3n2)CC1 (stereo not drawn) [Example 401] |  | 5.5 |  |  |  | 1.5 | 9.2 nM | 30 nM | 2720 nM | ≥ 5000 nM
17 | C=CC(=O)N1CC[C@@H](c2ccc3ncnc(Nc4ccc(Oc5ccn6ncnc6c5)c(C)c4F)c3n2)CC12CC2 (single isomer, unassigned) [Example 173] | 105 nM | 3 | 21 nM | ≥ 10000 nM | 2310 nM | 0.7 |  |  |  | 
